Data on one compound can be found in patent publication US20030125572A1, “Diester compounds of maleic acid (or fumaric acid)” (SENJU PHARMACEUTICAL CO., LTD., priority 1999, published 2003).

Assay [1] can be described thus: DPPH radical scavenging capacity. The settings on record: for Radical scavenging capacity: DPPH, 20 min, absorbance at 517 nm. The procedure:
The Compound is tested for the radical scavenging capacity against the stabilized radical of 1,1-diphenyl-2-picrylhydro radicals (DPPH).
The compound of Example 1 is dissolved in ethanol to the concentrations ranging from 10^−2 to 10^−5 M.
The test is carried out in accordance with the procedure of Blois, M. S., Nature: 181, 1199 […].
Added to 300 μl of a sample solution is 2.7 ml of a 0.011 mM ethanol solution of DPPH or a stabilized radical, and the solution is stirred and left on standing for 20 min., followed by measurement of absorbance at a wavelength of 517 nm. The radical scavenging rate of the sample solution is determined by the following equation:
Radical scavenging rate (%)=(absorbance of control−absorbance of the sample solution[…])×100
(The DPPH test is a chemical assay of radical scavenging.)

Assay [2] concerns mouse auricule inflammation. In words: Inflammation model of mouse auricule (PMA-induced edema). Type of assay: in vivo. The settings on record: for Inhibition rate (%): auricule edematization, against control (methanol), 0.5% solution topically, 24 hours. As for the experimental part: The compound of Example 1 is dissolved in ethanol to the concentration of 0.5%.
6-Weeks aged male mice of ddy strain as procured from SLC CO. are subjected to the test.
In order to cause inflammation, a solution (100 μg/mL) of phorbol 12-myristate 13-acetate (PMA) in acetone is applied in 10-μl portions (20 μl in total per mouse) onto the inside and outside of right-hand auricule of each mouse in such a manner that the solution may extend over the whole auricule. 24 Hours after causing inflammation, the thickness of right-hand auricule of each mouse is measured with use of a dial thickness gauge, and the edematization rate is calculated based on the thickness before causing inflammation.
The test substance is applied in 10-μl portions (20 μl in total per mouse) onto the inside and outside of right-hand auricule of each mouse.

Molecules are shown by their SMILES. Structures can show the parent of a compound that is named as a salt.

In assay [1] (DPPH radical), `Cc1c(C)c2c(c(C)c1OC(=O)/C=C\C(=O)OC1=C(O)[C@@H]([C@@H](O)CO)OC1=O)CCC(C)(CCCC(C)CCCC(C)CCCC(C)C)O2` (stereo partly drawn) [Example 1, α-Tocopheryl L-Ascorbic Acid-2-O-Maleate (or Fumarate)] registered an IC50 of roughly 560 µM. The Radical scavenging capacity in assay [1] (final concn. 10 μM) is 5.2%; in assay [1] (final concn. 100 μM), 10.8%; in assay [1] (final concn. 300 μM), 29.5%; in assay [1] (final concn. 1000 μM), 61.4%. Further, the “Inhibition rate (%)” value worked out at 83.8% in assay [2] (listed as Compound of Example 1) and 83.3% in assay [2] (listed as the Compound). In addition, in assay [2] (male ddy mice, PMA on right auricule, 24 hours after causing inflammation, 0.5% solution applied topically, 20 μl per mouse, mean ± S.E. (n = 8)), the “Edematization rate (%)” value came out at 26.9 ± 6.2 %.

Usually IC50 stands for the midpoint of a concentration-inhibition curve.
